# Data: ChEMBL document CHEMBL1139417, “Synthesis and biological evaluation of novel 3'-N-tert-butylsulfonyl analogues of docetaxel” (Bioorg Med Chem Lett, 2008)
# Tests used:
# Type in all cases: functional, cell-based
# HeLa = test: Cytotoxicity against human HeLa cells
# [1] = Cytotoxicity against human Eca109 cells; settings: ECa-109
# SMMC-7721 = test: Cytotoxicity against human SMMC7721 cells
# HCT-8 = test: Cytotoxicity against human HCT8 cells
Structure (SMILES),IC50 (HeLa) [nM],IC50 [1] [nM],IC50 (SMMC-7721) [nM],IC50 (HCT-8) [nM]
CC(=O)O[C@@]12CO[C@@H]1C[C@H](O)[C@@]1(C)C(=O)[C@H](O)C3=C(C)[C@@H](OC(=O)[C@H](O)[C@@H](NS(=O)(=O)C(C)(C)C)c4ccccc4)C[C@@](O)([C@@H](OC(=O)c4ccccc4)[C@H]21)C3(C)C,9540,7140,> 10000,9120
CC(=O)O[C@@]12CO[C@@H]1C[C@H](O)[C@@]1(C)C(=O)[C@H](O)C3=C(C)[C@@H](OC(=O)[C@H](O)[C@@H](NC(=O)OC(C)(C)C)c4ccccc4)C[C@@](O)([C@@H](OC(=O)c4ccccc4)[C@H]21)C3(C)C [DOCETAXEL],3030,2600,2730,3070
CC(=O)O[C@H]1C(=O)[C@@]2(C)[C@H]([C@H](OC(=O)c3ccccc3)[C@]3(O)C[C@H](OC(=O)[C@H](O)[C@@H](NC(=O)c4ccccc4)c4ccccc4)C(C)=C1C3(C)C)[C@]1(OC(C)=O)CO[C@@H]1C[C@@H]2O [PACLITAXEL],–,2730,2860,3290
CC(=O)O[C@@]12CO[C@@H]1C[C@H](O)[C@@]1(C)C(=O)[C@H](O)C3=C(C)[C@@H](OC(=O)[C@H](O)[C@@H](NS(=O)(=O)C(C)(C)C)c4ccc[n+]([O-])c4)C[C@@](O)([C@@H](OC(=O)c4ccccc4)[C@H]21)C3(C)C,2670,2520,2450,3030
CC(=O)O[C@@]12CO[C@@H]1C[C@H](O)[C@@]1(C)C(=O)[C@H](O)C3=C(C)[C@@H](OC(=O)[C@H](O)[C@@H](NS(=O)(=O)C(C)(C)C)c4cccc[n+]4[O-])C[C@@](O)([C@@H](OC(=O)c4ccccc4)[C@H]21)C3(C)C,2540,1950,2540,2850
